Data from publication PMC8593400, “Effective Search of Triterpenes with Anti-HSV-1 Activity Using a Classification Model by Logistic Regression” (Frontiers in Chemistry, 2021).
“Also recorded” adds a separate entry of the source. Where two headings read alike, the source gives them in different places.

Key:
[1] = tested on: HSV-1 (HF strain: acyclovir-sensitive); experiment: plaque reduction assay on Vero cells (anti-HSV-1 activity); type: cell-based, herpes simplex virus type 1; settings: for IC50: 50% inhibitory concentration, plaque reduction
Experimental: Antiviral effects against HSV-1 (HF strain: acyclovir-sensitive) were evaluated using a plaque reduction assay with some modifications as previously reported ([Ogawa et al., 2018]). The activity of all test compounds was measured at 25 μM, corresponding to the threshold of the prediction model. […] The protocol was performed follows.
Vero cells were maintained in Dulbecco’s Modified Eagle Medium (DMEM) supplemented with 10% fetal calf serum (FBS). Vero cells (1.7–2.8 × 10^5 cells/well) were seeded onto a 12-well tissue culture plate and precultured for 1–2 days. The cells were inoculated with 100 plaque-forming units (PFU) of HSV-1 in 0.1 ml of FBS-free DMEM. After 30 min, the inoculum was removed. HSV-infected cells were maintained in DMEM containing 10% FBS, methylcellulose, and serially diluted test compounds. After 48 h of incubation at 37°C, the medium was removed. The cell sheets were stained with 1% crystal violet dissolved in 50% methanol, and the number of plaques larger than 0.4 mm was counted. HSV-1 replication causes cytopathic effects, resulting in plaque formation. The number and size of plaques reflected virus yields. To examine the effect of virus yield reduction, the total plaque number in cells untreated with the compound was defined as 100% and set as the control group. The significant difference of test compounds at 25 μM from the control group was calculated using the Student’s t-test. The significant difference of each concentration of 10–13 and 16 from the control group was calculated by Dunnett’s test. Probability (p) values less than 0.05 were considered to be significant (^* p < 0.05, ^** p < 0.01).

[2] = cytotoxicity, CellTiter-Glo 3D cell viability assay; type: cell-based; settings: African green monkey
Experimental: (§1) All test compounds were evaluated their cytotoxicity by using CellTiter-Glo 3D® cell viability assay ([Matsumoto et al., 2020]). Briefly, Vero cells (3.0 × 10^3 cells/ well) were seeded in 96-well plates (96F Nunclon TM Delta Microwell SI; Thermo Fisher Scientific), and precultured for 24 h. The cells were treated with test compounds (10 μL/well). After 48 h, CellTiter-Glo® 3D Reagent (Promega, Madison, WI, United States) was added at 100 μL per well, mixed by shaking for 5 min at RT, and incubated for 25 min at 37°C. The cell-containing media were transferred to a 96-well white plate (96F Nunclon TM Delta White Microwell SI; Thermo Fisher Scientific). Luminescence was measured with a luminometer (FLUOstar OPTIMA®; BMG Labtech, Ortenberg, Germany).

HSV-1 = settings: cited from earlier work; for anti-HSV-1 activity previously reported: ref Rattanathongkom et al., 2009
[3] = parameters: method as in Rattanathongkom et al., 2009; settings: ref Rattanathongkom et al., 2009; cited from earlier work
Vero cells = experiment: cytotoxicity, CellTiter-Glo 3D cell viability assay; type: cell-based
Experimental: as §1

[4] = Human alphaherpesvirus 1, Vero, 48 h, 5 μM, plaque number vs untreated control, Vero cells, 48 h, read-out: Inhibitory rate (%) 5 μM
[5] = Human alphaherpesvirus 1, Vero, 48 h, 25 μM, plaque number vs untreated control, Vero cells, 48 h, read-out: Inhibitory rate (%) 25 μM
[6] = Human alphaherpesvirus 1, Vero, 48 h, 10 μM, plaque number vs untreated control, Vero cells, 48 h, read-out: Inhibitory rate (%) 10 μM
[7] = Human alphaherpesvirus 1, Vero, Vero cells, read-out: IC50
[8] = Human alphaherpesvirus 1, Vero, 48 h, read-out: Inhibitory rate (%) 25 μM, 25 μM, plaque number vs untreated control, Vero cells, 48 h

CC1(C)CC[C@]2(C(=O)O)CC[C@]3(C)C(=CC[C@@H]4[C@@]5(C)CC[C@H](O)C(C)(C)[C@@H]5CC[C@]43C)[C@@H]2C1 [oleanolic acid, reference compound]
inhibition at 5 µM [1, 4]: 9.02 ± 4.22% | inhibition at 25 µM [1, 5]: 21.4 ± 11.6%

CC(C)=CCC[C@@H](C=O)[C@H]1CC[C@@]2(C)C3=C(CC[C@]12C)[C@@]1(C)CC[C@H](O)C(C)(C)[C@@H]1CC3 [Compound 18, 3β-hydroxylanosta-8,24-dien-21-al]
inhibition at 25 µM [1, 5]: 1.24 ± 3.8% | viability at 48 h, 25 µM ([2]; Cell viability (%)): 113 ± 4.93%

CC(C)C(C)CCC(C)C1CCC2C1(C)CCC1C23C=CC2(CC(O)CCC12C)OO3 (stereo not drawn) [Compound 16, 5α,8α-epidioxyergosta-3β-ol]
anti-HSV-1 activity in words (significance vs control) ([1]; 25 μM): significant activity | inhibition at 5 µM [1, 4]: -2.49 ± 8.74% | inhibition at 10 µM [1, 6]: 0% | inhibition at 25 µM [1, 5]: 27.2 ± 5.52% | viability at 48 h, 25 µM ([2]; Cell viability (%)): 130 ± 6.83% | viability at 48 h, 50 µM ([2]; Cell viability (%)): 2.96 ± 1.77%

C=C1CC[C@]2(C(=O)O)[C@@H](O)C[C@]3(C)C(=CC[C@@H]4[C@@]5(C)CC[C@H](O)C(C)(C)[C@@H]5CC[C@]43C)[C@@H]2C1 [Compound 6, pfaffianol A]
inhibition at 25 µM [1, 5]: 12.4 ± 16.9% | viability at 48 h, 25 µM ([2]; Cell viability (%)): 122 ± 6.84%

C[C@]12C[C@H](O)[C@H](O)C[C@H]1C(=O)C=C1[C@@H]2CC[C@]2(C)[C@@H](O)CC[C@@]12O [Compound 9, 2β,3β,14α,17β-tetrahydroxy-5β-androst-7-en-6-one]
viability at 48 h, 25 µM ([2]; Cell viability (%)): 106 ± 3.86%

CC1(C)CCC2(C(=O)O)CCC3(C)C(=CCC4C5(C)CCC(OC6OC(C(=O)O)C(O)C(O)C6O)C(C)(C)C5CCC43C)C2C1 [Compound 10, oleanolic acid 3-O-β-D-glucuronopyranoside]
anti-HSV-1 activity previously reported (HSV-1): did not show any anti-HSV-1 activity | anti-HSV-1 activity in words (significance vs control) ([1]; 25 μM): significant activity | IC50 ([1]; Vero cells, read-out: IC50): 14.1 µM | IC50 [1, 7]: < 25 µM | inhibition at 5 µM [1, 4]: 5.85 ± 8.4% | inhibition at 10 µM [1, 6]: 27.5 ± 8.92% | inhibition at 25 µM [1, 5]: 83.3 ± 41.1% | cytotoxicity previously reported [3]: cytotoxicity | cytotoxicity in words (Vero cells): showed cytotoxicity | Cell viability (%) (Vero cells; African green monkey, 48 h, 10 µM): 104.0 ± 9.28% | viability at 48 h, 10 µM ([2]; Cell viability (%)): 104 ± 9.28% | viability at 48 h, 25 µM ([2]; Cell viability (%)): 14.6% | viability at 48 h, 50 µM ([2]; Cell viability (%)): 1.47 ± 0.54%

C[C@@H]1CC[C@]2(C(=O)O)CC[C@]3(C)C(=CC[C@@H]4[C@@]5(C)C[C@@H](O)[C@@H](O)C(C)(C)[C@@H]5CC[C@]43C)[C@@H]2[C@]1(C)O [Compound 1, Euscaphic acid]
inhibition at 25 µM [1, 5]: 0% | viability at 48 h, 25 µM ([2]; Cell viability (%)): 117 ± 5.2%

CC(C)[C@@H](O)C[C@@H](O)[C@](C)(O)[C@H]1CC[C@@]2(O)C3=CC(=O)[C@@H]4C[C@@H](O)[C@@H](O)C[C@]4(C)[C@H]3CC[C@]12C [Compound 7, pterosterone]
viability at 48 h, 25 µM ([2]; Cell viability (%)): 115 ± 3.95%

cucurbitacin B [reference compound]
anti-HSV-1 activity (HSV-1; ref Hassan et al., 2017): strong anti-HSV-1 activity | selectivity index (HSV-1; ref Hassan et al., 2017): high

CC1(C)CC[C@]2(C(=O)O)CC[C@]3(C)C(=CCC4[C@@]5(C)C[C@H](O)[C@H](O)[C@@](C)(CO)C5CC[C@]43C)[C@@H]2C1 (some centres unmarked) [Compound 2, bayogenin]
viability at 48 h, 25 µM ([2]; Cell viability (%)): 117 ± 6.99%

C[C@H](C/C=C/C(C)(C)OO)C1CC[C@@]2(C)C3=C(CC[C@]12C)[C@@]1(C)CC[C@H](O)C(C)(C)C1CC3 (stereo partly drawn) [Compound 20, (3β,23E)-25-hydroperoxylanosta-8,23-dien-3-ol]
inhibition at 25 µM [1, 5]: 19 ± 9.25%

CC1(C)CC[C@]2(C(=O)O[C@@H]3O[C@H](CO)[C@@H](O)[C@H](O)[C@H]3O)CC[C@]3(C)C(=CC[C@@H]4[C@@]5(C)CC[C@H](O[C@@H]6O[C@H](C(=O)O)[C@@H](O)[C@H](O)[C@H]6O)C(C)(C)[C@@H]5CC[C@]43C)[C@@H]2C1 [Compound 11, chikusetsusaponin IVa]
anti-HSV-1 activity previously reported (HSV-1): exhibit anti-HSV-1 activity | anti-HSV-1 activity in words (significance vs control) ([1]; 25 μM): significant activity | Inhibitory rate (%) 25 μM ([1]; 25 μM, plaque number vs untreated control, Vero cells, 48 h, 25 µM): 51.82 ± 9.61^** % | IC50 ([1]; Vero cells): 13.1 µM | IC50 ([1]; Human alphaherpesvirus 1, Vero, Vero cells): < 25 µM | inhibition at 5 µM ([1]; Human alphaherpesvirus 1, Vero, 48 h, read-out: Inhibitory rate (%) 5 μM, 5 μM, plaque number vs untreated control, Vero cells, 48 h): 14.6 ± 15% | inhibition at 10 µM ([1]; Human alphaherpesvirus 1, Vero, 48 h, read-out: Inhibitory rate (%) 10 μM, 10 μM, plaque number vs untreated control, Vero cells, 48 h): 36.8 ± 17.4% | inhibition at 25 µM [1, 8]: 51.8 ± 9.61% | viability at 48 h, 25 µM ([2]; Cell viability (%)): 112 ± 4.45% | viability at 48 h, 50 µM ([2]; Cell viability (%)): 113 ± 6.08%

CC(C)(O)CCC(=O)[C@](C)(O)[C@H]1CC[C@@]2(O)C3=CC(=O)[C@@H]4C[C@@H](O)[C@@H](O)C[C@]4(C)C3CC[C@]12C (some centres unmarked) [Compound 15, 22-oxo-20-hydroxyecdysone]
viability at 48 h, 25 µM ([2]; Cell viability (%)): 115 ± 3.93%

CC1(C)C(=O)CC[C@@]2(C)C1CC[C@]1(C)C2CC=C2[C@@H]3C[C@](C)(C(=O)O)CC[C@]3(C(=O)O)CC[C@]21C (stereo partly drawn) [Compound 5, (20α)-3-oxoolean-12-ene-28,29-dioic acid]
viability at 48 h, 25 µM ([2]; Cell viability (%)): 122 ± 5.6%

C=C1CCC2(C(=O)O)C(O)CC3(C)C(=CCC4C5(C)CCC(OC6OC(C(=O)O)C(O)C(O)C6O)C(C)(C)C5CCC43C)C2C1 (centres unmarked) [Compound 4, Pfaffiaglycoside B]
inhibition at 25 µM [1, 5]: 7.64 ± 10.7% | viability at 48 h, 25 µM ([2]; Cell viability (%)): 108 ± 4.17%

C=C1CCC2(C(=O)OC3OC(CO)C(O)C(O)C3O)CCC3(C)C(=CCC4C5(C)CCC(OC6OC(C(=O)O)C(O)C(O)C6O)C(C)(C)C5CCC43C)C2C1 (centres unmarked) [Compound 12, boussingoside A2]
anti-HSV-1 activity in words (significance vs control) ([1]; 25 μM): significant activity; also recorded: moderate anti-HSV-1 activity | inhibition at 5 µM [1, 4]: 4.42 ± 8.12% | inhibition at 10 µM [1, 6]: 2.77 ± 11.6% | inhibition at 25 µM [1, 5]: 24.7 ± 10.2% | cytotoxicity in words (Vero cells): no cytotoxicity | viability at 48 h, 25 µM ([2]; Cell viability (%)): 112 ± 6.79% | viability at 48 h, 50 µM ([2]; Cell viability (%)): 111 ± 9.73%

C[C@@H](C1CC[C@@]2(C)C3=C(CC[C@]12C)[C@@]1(C)CC[C@H](O)C(C)(C)C1CC3)[C@H](O)/C=C/C(C)(C)OO (stereo partly drawn) [Compound 17, 3β,22R-Dihydroxylanosta-8,23E-diene-25-peroxide]
viability at 48 h, 25 µM ([2]; Cell viability (%)): 16.8%

CC(C)=CCC[C@@H](C)[C@H]1CC[C@@]2(C)C3=C(CC[C@]12C)[C@@]1(C)CC[C@H](O)C(C)(C)[C@@H]1CC3 [Compound 19, lanosterol]
inhibition at 25 µM [1, 8]: 20.4 ± 8.49% | viability at 48 h, 25 µM ([2]; Vero cells, 25 μM, Vero cells, 48 h, read-out: Cell viability (%)): 101 ± 4.72%

Nc1nc2c(ncn2COCCO)c(=O)[nH]1 [acyclovir, reference compound]
IC50 [1, 7]: 3.08 µM | inhibition at 2.5 µM ([1]; Human alphaherpesvirus 1, Vero, 48 h, 2.5 μM, plaque number vs untreated control, Vero cells, 48 h, read-out: Inhibitory rate (%) 2.5 μM): 57.5 ± 11.9% | inhibition at 10 µM [1, 6]: 96 ± 11.8% | viability at 48 h, 10 µM ([2]; Vero cells, 10 μM, Vero cells, 48 h, read-out: Cell viability (%)): 103 ± 13.8%

CC(C)(O)CCC[C@](C)(O)[C@H]1CC[C@@]2(O)C3=CC(=O)[C@@H]4C[C@@H](O)[C@@H](O)C[C@]4(C)C3CC[C@]12C (some centres unmarked) [Compound 8, taxisterone]
viability at 48 h, 25 µM ([2]; Cell viability (%)): 122 ± 4.78%
